Data on five molecules can be found in patent US20210038585A1 (Tesaro, Inc., priority 2017, published 2021).

Broadly, the IC50 is the concentration that inhibits the measured activity by half. The IC90 is the point of the concentration-response curve where the effect stands at 90%. As a reminder, the EC50 is the concentration that produces a half-maximal response.

The nature of data set [1]: shear cell tests using a FT-4 powder rheometer. Conditions: niraparib drug substance; for BD (bulk density): shear cell test. It is filed as physicochemical. How it is done: As used herein, “flow function” or FF is a parameter commonly used to rank powder's flowability and is determined using a shear test. The data produced in the shear test represents the relationship between shear stress and normal stress, which can be plotted to define the powder's Yield Locus. Fitting Mohr stress circles to the yield locus identifies the Major Principle Stress (MPS) and Unconfined Yield Strength (UYS). Flow function is the ratio of Major Principle Stress (MPS) to the Unconfined Yield Strength (UYS):
Shear testing can be used measure powder shear properties which involves the stress limit required to initiate a powder flow. The shear testing uses a segmented rotational shear cell head and a 10 ml powder sample in the borosilicate test vessel. Powder is filled into the vessel. The shear cell head is simultaneously rotated and moved axially under the powder sample at pre-determined normal stresses as the shear stresses are measured to calculate several parameters, including the flow function (FF). Usually, powders of low cohesion have higher FF and that represents better flow properties. The permeability test can measure the ease of air transmission through a bulk powder which can be related to the powder's flowability. For example, a permeability testing can use a vented piston with an aeration base and 10 mL powder sample in the borosilicated test vessel.
Samples of powder compositions were prepared to evaluate the powder compositions disclosed herein. The following tests/measurements were made using a FT-4 powder rheometer from Freeman technology.
The cohesion (kPa), Unconfined Yield Strength (UYS) (kPa), Maj or Principle Stress (MPS) (kPa), flow function (FF) (MPS/UYS), Angle of internal friction (AIF), and bulk density (BD) (g/cm^3) were determined by carrying out shear cell tests using a FT-4 powder rheometer and the results can be seen in the tables below: […]

Data set [2] in a line: wall friction test, FT-4 powder rheometer, stainless steel discs. It is filed as physicochemical. As to conditions: niraparib batches, Ra 0.05; for BD (bulk density): wall friction test. From the text:
A Wall Friction test can be used to provide a measurement of the sliding resistance between a powder and the surface of process equipment, such as an encapsulator or blender or hopper. This can be important for understanding discharge behavior from hoppers, continuity of flow in transfer chutes and tablet ejection forces. It is also useful when investigating whether a powder will adhere to the wall of process equipment and various other surfaces, such as the inside of sachets, capsules and other packaging material. The measurement principle is very similar to the shear cell test, but rather than shearing powder against powder, in this test a coupon of material representing the process equipment wall is sheared against the powder in question. The FT4 Wall Friction accessory allows for a range of coupons to be investigated, and bespoke surfaces can be manufactured if required. Data is typically represented as a plot of shear stress against normal stress, allowing the determination of Wall Friction Angle (phi). The greater the wall friction angle, the higher the resistance between the powder and wall coupon.
The measurement principle is very similar to the shear cell test, but rather than shearing powder against powder, in this test a coupon of material representing the process equipment wall is sheared against the powder in question. The FT4 Wall Friction accessory allows for a range of coupons to be investigated. Wall Friction is typically represented as a plot of shear stress against normal stress, allowing the determination of Wall Friction Angle (phi). The greater the wall friction angle, the higher the resistance between the powder and wall coupon.
A wall friction test method was developed to assess the interaction between the drug substance and stainless steel. […]
The head continues to move downwards until the required normal stress is established. […] The torque required to maintain this rotational is measured which enables a “steady-state” shear stress to be calculated. […] A series of shear stress values is measured for a range of target applied stresses. […]

Data set [3] deals with tumor models.
For data set [4] the following is noted: drug substance. On the procedure: These batches were divided into sub-lots at various time intervals and each sub-lot was analyzed for content uniformity.
For data set [5] the following is noted: crystalline solid drug substance.
Data set [6] has as its system intracellular PARP activity.
Data set [7] in a line: in vivo. Conditions: 50 mg/kg.
The test system of data set [8] is intracellular PARP activity. As to conditions: read-out: inhibited PARP activity in a whole cell assay, EC50; cited from earlier work.
Data set [9] relates to cancer cells with mutant BRCA-1 and BRCA-2. Conditions: read-out: inhibited proliferation, CC50; cited from earlier work.

Where “and” joins values, the source holds several entries; their conditions need not be identical. Equal values may be shown once. Read-outs that look alike come from different tables or passages of the source.

Regarding `Cc1ccc(S(=O)(=O)O)cc1.NC(=O)c1cccc2cn(-c3ccc(C4CCCNC4)cc3)nc12.O` (stereo not drawn) [Non Milled, Annealed A], in data set [1], the “AIF (Angle of internal friction)” value is 36.54 ° and 35.80 °; the Cohesion was 1.10 kPa and 1.02 kPa; the “FF, flow function (MPS/UYS)” value was 4.27 and 4.66; the “MPS (Major Principle Stress)” value is 18.64 kPa and 18.50 kPa. In [1], the “UYS (Unconfined Yield Strength)” value was 4.36 kPa and 3.97 kPa; the “BD (bulk density)” value is 0.38 g/mL and 0.37 g/mL. Also, the “BD (bulk density)” value in data set [2] was 0.37 g/mL and 0.38 g/mL and 0.39 g/mL.
In the case of `Cc1ccc(S(=O)(=O)O)cc1.NC(=O)c1cccc2cn(-c3ccc(C4CCCNC4)cc3)nc12.O` (stereo not drawn) [Non Milled, Annealed D], in data set [1], the “AIF (Angle of internal friction)” value was 30.49 ° and 31.30 °; the Cohesion is 1.14 kPa and 1.06 kPa; the “FF, flow function (MPS/UYS)” value is 4.12 and 4.32; the “MPS (Major Principle Stress)” value is 16.44 kPa and 16.24 kPa. Besides, in [1], the “UYS (Unconfined Yield Strength)” value was 3.99 kPa and 3.76 kPa; the “BD (bulk density)” value was 0.44 g/mL and 0.46 g/mL. In data set [2], the “WFA (Wall friction angle)” value was 27.29 ° and 31.10 ° and 30.98 °; the “BD (bulk density)” value is 0.44 g/mL and 0.46 g/mL and 0.45 g/mL.
In the case of `O=C(c1cc(Cc2n[nH]c(=O)c3ccccc23)ccc1F)N1CCN(C(=O)C2CC2)CC1` [olaparib], the tumor regression result in [3] (same model, dose of 75 mg/kg) is given as “did not result in tumor regression”.
Take `Cc1ccc(S(=O)(=O)O)cc1.NC(=O)c1cccc2cn(-c3ccc([C@@H]4CCCNC4)cc3)nc12` [Niraparib tosylate monohydrate, 2-{4-[(3S)-piperidin-3-yl]phenyl}-2H-indazole 7-carboxamide 4-methylbenzenesulfonate hydrate (1:1:1)]: in data set [4], the bulk density is recorded as 0.34-0.45 g/cc and the tapped density is 0.53-0.66 g/cc. In [5], the hygroscopicity entry is on record as “non-hygroscopic”.
On to `NC(=O)c1cccc2cn(-c3ccc([C@@H]4CCCNC4)cc3)nc12` [Niraparib, 2-{4-[(3S)-piperidin-3-yl]phenyl}-2H-indazole-7-carboxamide], for which the “intracellular PARP activity IC90” value in [6] (mass concentration equivalent) turned out to be 0.016 µg/mL. The 50% inhibitory concentration (IC50) in data set [6] (read-out: intracellular PARP activity IC50) turned out to be 4 nM. The IC90 in data set [6] (read-out: intracellular PARP activity IC90) turned out to be 50 nM. Moreover, the tumor regression entry in data set [3] (50 mg/kg, daily dosing) is given as “tumor regression”; in [3] (dosing switched from 75 mg/kg olaparib to 50 mg/kg niraparib) it was “tumor regression was achieved”. Also, in data set [7], the concentration at 6 h is ~4570 ng/mL. The concentration for a half-maximal effect (EC50) in [8] was 4 nM. Also, in [9], the CC50 was 10 to 100 nM.
